Source: ChEMBL document CHEMBL5303573, “Mapping human microbiome drug metabolism by gut bacteria and their genes” (Nature, 2019)

Assay: The drug is tested on Alistipes indistinctus strain: DSM22520 for biotransformation. The drug concentrations were measured before and after a 12-h incubation by liquid-chromatography-coupled mass spectrometry (LC–MS)
Conditions: 2 µM

| Bacterial Biotransformation | SMILES |
| --- | --- |
| Compound metabolized | CC(=O)Oc1ccc(C(c2ccc(OC(C)=O)cc2)c2ccccn2)cc1 [BISACODYL] |
| Compound metabolized | COc1ccc2[nH]c([S+]([O-])Cc3ncc(C)c(OC)c3C)nc2c1 (stereo not given) [OMEPRAZOLE] |
| Compound NOT metabolized | CCN1CCCC1CNC(=O)c1cc(S(=O)(=O)CC)c(N)cc1OC (stereo not given) [AMISULPRIDE] |

Assay: The drug is tested on Bacteroides coprophilus strain: DSM18228 for biotransformation. The drug concentrations were measured before and after a 12-h incubation by liquid-chromatography-coupled mass spectrometry (LC–MS)
Conditions: 2 µM

| Bacterial Biotransformation | SMILES |
| --- | --- |
| Compound metabolized | CC(=O)Oc1ccc(C(c2ccc(OC(C)=O)cc2)c2ccccn2)cc1 [BISACODYL] |
| Compound metabolized | COc1ccc2[nH]c([S+]([O-])Cc3ncc(C)c(OC)c3C)nc2c1 (stereo not given) [OMEPRAZOLE] |
| Compound NOT metabolized | CCN1CCCC1CNC(=O)c1cc(S(=O)(=O)CC)c(N)cc1OC (stereo not given) [AMISULPRIDE] |

Assay: The drug is tested on Bacteroides dorei strain: DSM17855 for biotransformation. The drug concentrations were measured before and after a 12-h incubation by liquid-chromatography-coupled mass spectrometry (LC–MS)
Conditions: phocaeicola dorei, 2 µM

| Bacterial Biotransformation | SMILES |
| --- | --- |
| Compound metabolized | CC(=O)Oc1ccc(C(c2ccc(OC(C)=O)cc2)c2ccccn2)cc1 [BISACODYL] |
| Compound metabolized | COc1ccc2[nH]c([S+]([O-])Cc3ncc(C)c(OC)c3C)nc2c1 (stereo not given) [OMEPRAZOLE] |
| Compound NOT metabolized | CCN1CCCC1CNC(=O)c1cc(S(=O)(=O)CC)c(N)cc1OC (stereo not given) [AMISULPRIDE] |

Assay: The drug is tested on Bacteroides ovatus strain: ATCC8483 for biotransformation. The drug concentrations were measured before and after a 12-h incubation by liquid-chromatography-coupled mass spectrometry (LC–MS)
Conditions: 2 µM

| Bacterial Biotransformation | SMILES |
| --- | --- |
| Compound metabolized | CC(=O)Oc1ccc(C(c2ccc(OC(C)=O)cc2)c2ccccn2)cc1 [BISACODYL] |
| Compound metabolized | COc1ccc2[nH]c([S+]([O-])Cc3ncc(C)c(OC)c3C)nc2c1 (stereo not given) [OMEPRAZOLE] |
| Compound NOT metabolized | CCN1CCCC1CNC(=O)c1cc(S(=O)(=O)CC)c(N)cc1OC (stereo not given) [AMISULPRIDE] |

Assay: The drug is tested on Bacteroides pectinophilus strain: ATCC43243 for biotransformation. The drug concentrations were measured before and after a 12-h incubation by liquid-chromatography-coupled mass spectrometry (LC–MS)
Conditions: 2 µM

| Bacterial Biotransformation | SMILES |
| --- | --- |
| Compound metabolized | CC(=O)Oc1ccc(C(c2ccc(OC(C)=O)cc2)c2ccccn2)cc1 [BISACODYL] |
| Compound metabolized | COc1ccc2[nH]c([S+]([O-])Cc3ncc(C)c(OC)c3C)nc2c1 (stereo not given) [OMEPRAZOLE] |
| Compound NOT metabolized | CCN1CCCC1CNC(=O)c1cc(S(=O)(=O)CC)c(N)cc1OC (stereo not given) [AMISULPRIDE] |

Assay: The drug is tested on Bacteroides uniformis strain: ATCC8492 for biotransformation. The drug concentrations were measured before and after a 12-h incubation by liquid-chromatography-coupled mass spectrometry (LC–MS)
Conditions: 2 µM

| Bacterial Biotransformation | SMILES |
| --- | --- |
| Compound metabolized | CC(=O)Oc1ccc(C(c2ccc(OC(C)=O)cc2)c2ccccn2)cc1 [BISACODYL] |
| Compound metabolized | COc1ccc2[nH]c([S+]([O-])Cc3ncc(C)c(OC)c3C)nc2c1 (stereo not given) [OMEPRAZOLE] |
| Compound NOT metabolized | CCN1CCCC1CNC(=O)c1cc(S(=O)(=O)CC)c(N)cc1OC (stereo not given) [AMISULPRIDE] |

Assay: The drug is tested on Parabacteroides merdae strain: ATCC43184 for biotransformation. The drug concentrations were measured before and after a 12-h incubation by liquid-chromatography-coupled mass spectrometry (LC–MS)
Conditions: 2 µM

| Bacterial Biotransformation | SMILES |
| --- | --- |
| Compound metabolized | CC(=O)Oc1ccc(C(c2ccc(OC(C)=O)cc2)c2ccccn2)cc1 [BISACODYL] |
| Compound metabolized | COc1ccc2[nH]c([S+]([O-])Cc3ncc(C)c(OC)c3C)nc2c1 (stereo not given) [OMEPRAZOLE] |
| Compound NOT metabolized | CCN1CCCC1CNC(=O)c1cc(S(=O)(=O)CC)c(N)cc1OC (stereo not given) [AMISULPRIDE] |

Assay: The drug is tested on Anaerococcus hydrogenalis strain: DSM7454 for biotransformation. The drug concentrations were measured before and after a 12-h incubation by liquid-chromatography-coupled mass spectrometry (LC–MS)
Conditions: 2 µM

| Bacterial Biotransformation | SMILES |
| --- | --- |
| Compound metabolized | CC(=O)Oc1ccc(C(c2ccc(OC(C)=O)cc2)c2ccccn2)cc1 [BISACODYL] |
| Compound metabolized | COc1ccc2[nH]c([S+]([O-])Cc3ncc(C)c(OC)c3C)nc2c1 (stereo not given) [OMEPRAZOLE] |
| Compound NOT metabolized | CCN1CCCC1CNC(=O)c1cc(S(=O)(=O)CC)c(N)cc1OC (stereo not given) [AMISULPRIDE] |

Assay: The drug is tested on Anaerotruncus colihominis strain: DSM17241 for biotransformation. The drug concentrations were measured before and after a 12-h incubation by liquid-chromatography-coupled mass spectrometry (LC–MS)
Conditions: 2 µM

| Bacterial Biotransformation | SMILES |
| --- | --- |
| Compound metabolized | CC(=O)Oc1ccc(C(c2ccc(OC(C)=O)cc2)c2ccccn2)cc1 [BISACODYL] |
| Compound metabolized | COc1ccc2[nH]c([S+]([O-])Cc3ncc(C)c(OC)c3C)nc2c1 (stereo not given) [OMEPRAZOLE] |
| Compound NOT metabolized | CCN1CCCC1CNC(=O)c1cc(S(=O)(=O)CC)c(N)cc1OC (stereo not given) [AMISULPRIDE] |

Assay: The drug is tested on Clostridium ramosum strain: DSM1402 for biotransformation. The drug concentrations were measured before and after a 12-h incubation by liquid-chromatography-coupled mass spectrometry (LC–MS)
Conditions: thomasclavelia ramosa, 2 µM

| Bacterial Biotransformation | SMILES |
| --- | --- |
| Compound metabolized | CC(=O)Oc1ccc(C(c2ccc(OC(C)=O)cc2)c2ccccn2)cc1 [BISACODYL] |
| Compound metabolized | COc1ccc2[nH]c([S+]([O-])Cc3ncc(C)c(OC)c3C)nc2c1 (stereo not given) [OMEPRAZOLE] |
| Compound NOT metabolized | CCN1CCCC1CNC(=O)c1cc(S(=O)(=O)CC)c(N)cc1OC (stereo not given) [AMISULPRIDE] |

Assay: The drug is tested on Enterococcus faecalis strain: V583 for biotransformation. The drug concentrations were measured before and after a 12-h incubation by liquid-chromatography-coupled mass spectrometry (LC–MS)
Conditions: 2 µM

| Bacterial Biotransformation | SMILES |
| --- | --- |
| Compound metabolized | CC(=O)Oc1ccc(C(c2ccc(OC(C)=O)cc2)c2ccccn2)cc1 [BISACODYL] |
| Compound metabolized | COc1ccc2[nH]c([S+]([O-])Cc3ncc(C)c(OC)c3C)nc2c1 (stereo not given) [OMEPRAZOLE] |
| Compound NOT metabolized | CCN1CCCC1CNC(=O)c1cc(S(=O)(=O)CC)c(N)cc1OC (stereo not given) [AMISULPRIDE] |

Assay: The drug is tested on Eubacterium rectale strain: ATCC33656 for biotransformation. The drug concentrations were measured before and after a 12-h incubation by liquid-chromatography-coupled mass spectrometry (LC–MS)
Conditions: agathobacter rectalis, 2 µM

| Bacterial Biotransformation | SMILES |
| --- | --- |
| Compound metabolized | CC(=O)Oc1ccc(C(c2ccc(OC(C)=O)cc2)c2ccccn2)cc1 [BISACODYL] |
| Compound metabolized | COc1ccc2[nH]c([S+]([O-])Cc3ncc(C)c(OC)c3C)nc2c1 (stereo not given) [OMEPRAZOLE] |
| Compound NOT metabolized | CCN1CCCC1CNC(=O)c1cc(S(=O)(=O)CC)c(N)cc1OC (stereo not given) [AMISULPRIDE] |

Assay: The drug is tested on Ruminococcus gnavus strain: ATCC29149 for biotransformation. The drug concentrations were measured before and after a 12-h incubation by liquid-chromatography-coupled mass spectrometry (LC–MS)
Conditions: mediterraneibacter gnavus, 2 µM

| Bacterial Biotransformation | SMILES |
| --- | --- |
| Compound metabolized | CC(=O)Oc1ccc(C(c2ccc(OC(C)=O)cc2)c2ccccn2)cc1 [BISACODYL] |
| Compound metabolized | COc1ccc2[nH]c([S+]([O-])Cc3ncc(C)c(OC)c3C)nc2c1 (stereo not given) [OMEPRAZOLE] |
| Compound NOT metabolized | CCN1CCCC1CNC(=O)c1cc(S(=O)(=O)CC)c(N)cc1OC (stereo not given) [AMISULPRIDE] |

Assay: The drug is tested on Ruminococcus torques strain: ATCC27756 for biotransformation. The drug concentrations were measured before and after a 12-h incubation by liquid-chromatography-coupled mass spectrometry (LC–MS)
Format: ADME
Parameters: dose 2 uM, timepoint 0 vs 12 hours
Conditions: 2 µM

| Bacterial Biotransformation | SMILES |
| --- | --- |
| Compound metabolized | CC(=O)Oc1ccc(C(c2ccc(OC(C)=O)cc2)c2ccccn2)cc1 [BISACODYL] |
| Compound metabolized | COc1ccc2[nH]c([S+]([O-])Cc3ncc(C)c(OC)c3C)nc2c1 (stereo not given) [OMEPRAZOLE] |
| Compound NOT metabolized | CCN1CCCC1CNC(=O)c1cc(S(=O)(=O)CC)c(N)cc1OC (stereo not given) [AMISULPRIDE] |

Assay: The drug is tested on Edwardsiella tarda strain: ATCC23685 for biotransformation. The drug concentrations were measured before and after a 12-h incubation by liquid-chromatography-coupled mass spectrometry (LC–MS)
Conditions: 2 µM

| Bacterial Biotransformation | SMILES |
| --- | --- |
| Compound metabolized | CC(=O)Oc1ccc(C(c2ccc(OC(C)=O)cc2)c2ccccn2)cc1 [BISACODYL] |
| Compound metabolized | COc1ccc2[nH]c([S+]([O-])Cc3ncc(C)c(OC)c3C)nc2c1 (stereo not given) [OMEPRAZOLE] |
| Compound NOT metabolized | CCN1CCCC1CNC(=O)c1cc(S(=O)(=O)CC)c(N)cc1OC (stereo not given) [AMISULPRIDE] |

Assay: The drug is tested on Providencia stuartii strain: ATCC25827 for biotransformation. The drug concentrations were measured before and after a 12-h incubation by liquid-chromatography-coupled mass spectrometry (LC–MS)
Conditions: 2 µM

| Bacterial Biotransformation | SMILES |
| --- | --- |
| Compound metabolized | CC(=O)Oc1ccc(C(c2ccc(OC(C)=O)cc2)c2ccccn2)cc1 [BISACODYL] |
| Compound metabolized | COc1ccc2[nH]c([S+]([O-])Cc3ncc(C)c(OC)c3C)nc2c1 (stereo not given) [OMEPRAZOLE] |
| Compound NOT metabolized | CCN1CCCC1CNC(=O)c1cc(S(=O)(=O)CC)c(N)cc1OC (stereo not given) [AMISULPRIDE] |

Conditions: bifidobacterium adolescentis, 12 h, 2 µM
Description: The drug is tested on Bifidobacterium adolescentis strain: ATCC 15703 for biotransformation. The drug concentrations were measured before and after a 12-h incubation by liquid-chromatography-coupled mass spectrometry (LC–MS)

| Bacterial Biotransformation | SMILES |
| --- | --- |
| Compound metabolized | CC(=O)Oc1ccc(C(c2ccc(OC(C)=O)cc2)c2ccccn2)cc1 [BISACODYL] |
| Compound metabolized | COc1ccc2[nH]c([S+]([O-])Cc3ncc(C)c(OC)c3C)nc2c1 (stereo not given) [OMEPRAZOLE] |
| Compound NOT metabolized | CCN1CCCC1CNC(=O)c1cc(S(=O)(=O)CC)c(N)cc1OC (stereo not given) [AMISULPRIDE] |

Conditions: bacteroides fragilis, 12 h, 2 µM
Description: The drug is tested on Bacteroides fragilis strain: NCTC 9343 for biotransformation. The drug concentrations were measured before and after a 12-h incubation by liquid-chromatography-coupled mass spectrometry (LC–MS)

| Bacterial Biotransformation | SMILES |
| --- | --- |
| Compound metabolized | CC(=O)Oc1ccc(C(c2ccc(OC(C)=O)cc2)c2ccccn2)cc1 [BISACODYL] |
| Compound metabolized | COc1ccc2[nH]c([S+]([O-])Cc3ncc(C)c(OC)c3C)nc2c1 (stereo not given) [OMEPRAZOLE] |
| Compound NOT metabolized | CCN1CCCC1CNC(=O)c1cc(S(=O)(=O)CC)c(N)cc1OC (stereo not given) [AMISULPRIDE] |

Conditions: parabacteroides johnsonii, 12 h, 2 µM
Description: The drug is tested on Parabacteroides johnsonii strain: DSM18315 for biotransformation. The drug concentrations were measured before and after a 12-h incubation by liquid-chromatography-coupled mass spectrometry (LC–MS)

| Bacterial Biotransformation | SMILES |
| --- | --- |
| Compound metabolized | CC(=O)Oc1ccc(C(c2ccc(OC(C)=O)cc2)c2ccccn2)cc1 [BISACODYL] |
| Compound metabolized | COc1ccc2[nH]c([S+]([O-])Cc3ncc(C)c(OC)c3C)nc2c1 (stereo not given) [OMEPRAZOLE] |
| Compound NOT metabolized | CCN1CCCC1CNC(=O)c1cc(S(=O)(=O)CC)c(N)cc1OC (stereo not given) [AMISULPRIDE] |

Conditions: limosilactobacillus reuteri cf48-3a, 12 h, 2 µM
Description: The drug is tested on Lactobacillus reuteri CF48-3A strain: BEI HM-102 for biotransformation. The drug concentrations were measured before and after a 12-h incubation by liquid-chromatography-coupled mass spectrometry (LC–MS)

| Bacterial Biotransformation | SMILES |
| --- | --- |
| Compound metabolized | CC(=O)Oc1ccc(C(c2ccc(OC(C)=O)cc2)c2ccccn2)cc1 [BISACODYL] |
| Compound metabolized | COc1ccc2[nH]c([S+]([O-])Cc3ncc(C)c(OC)c3C)nc2c1 (stereo not given) [OMEPRAZOLE] |
| Compound NOT metabolized | CCN1CCCC1CNC(=O)c1cc(S(=O)(=O)CC)c(N)cc1OC (stereo not given) [AMISULPRIDE] |
